From patent US10774071B2, “PD-1/PD-L1 inhibitors” (Gilead Sciences, Inc., priority 2018, dated 2020)
Like-named read-outs stand apart in the source and are kept apart here.

Tests used:
PD-1/PD-L1 = PD-1/PD-L1 (Homo sapiens (Human), UniProt Q9NZQ7); assay: PD-1/PD-L1 biochemical protein-protein interaction assay (ALPHA); assay type: binding; settings: read-out: IC50 PD-L1-PD1
PD-L1 = PD-L1 (Homo sapiens (Human), UniProt Q9NZQ7); assay: PD-L1/PD-L1 dimerization biochemical protein-protein interaction assay (ALPHA); assay type: binding; settings: read-out: AC50 PDL1 Dimer 1 nM
PD-L1, sequence (Q9NZQ7 19-238): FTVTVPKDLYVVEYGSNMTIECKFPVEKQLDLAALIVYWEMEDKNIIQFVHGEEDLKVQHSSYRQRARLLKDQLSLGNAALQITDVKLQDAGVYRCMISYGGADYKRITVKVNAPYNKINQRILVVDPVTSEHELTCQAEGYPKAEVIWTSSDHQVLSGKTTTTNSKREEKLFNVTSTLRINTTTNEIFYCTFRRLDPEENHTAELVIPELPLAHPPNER
PD-L1, sequence (Q9NZQ7 19-238): as above

[1] = 0.3 nM His tagged PD-L1, 2.5 nM biotinylated Fc-PD-1, Table 3B
[2] = 0.5 nM His tagged PD-L1 and 0.5 nM FLAG tagged PD-L1, Table 4B
[3] = 0.3 nM His tagged PD-L1, 2.5 nM biotinylated Fc-PD-1, readings of 0.064 nM are equal to or less than 0.064 nM
[4] = 0.5 nM His tagged PD-L1 and 0.5 nM FLAG tagged PD-L1, Table 4A

PD-1/PD-L1, sequence (Q9NZQ7 19-238): as above

SMILES	IC50 (PD-1/PD-L1; [1]) [nM]	AC50 (PD-L1; [2]) [nM]	IC50 (PD-1/PD-L1; [3]) [nM]	AC50 (PD-L1; [4]) [nM]
COc1nc(-c2cccc(-c3cccc4c3CC[C@@H]4Oc3nc(OC)c(CN[C@@H](C)C(=O)O)cc3C(F)(F)F)c2Cl)ccc1CNC[C@@H]1CCC(=O)N1 [B-271]	0.064	1.91		
COc1nc(-c2cccc(-c3cccc4c3CC[C@@H]4Oc3nc(OC)c(CN4CC(C)(C(=O)O)C4)cc3Cl)c2Cl)ccc1CNC[C@@H]1CCC(=O)N1 [B-10]	0.064	5.4		
COc1nc(-c2cccc(-c3cccc4c3CC[C@@H]4Oc3nc(OC)c(CN(C)CC(=O)O)cc3C(F)(F)F)c2Cl)ccc1CNC[C@@H]1CCC(=O)N1 [B-258]	0.064	5.9		
COc1nc(-c2cccc(-c3cccc4c3CC[C@@H]4Oc3nc(OC)c(CN[C@H](C(=O)O)C4CC4)cc3C(F)(F)F)c2Cl)ccc1CN[C@H]1C[C@](C)(O)C1 [B-255]	0.064	7.89		
COc1nc(-c2cccc(-c3cccc4c3SC[C@@H]4Oc3nc(OC)c(CNC[C@@H]4CCC(=O)N4)cc3Cl)c2Cl)ccc1CNC[C@@H]1CCC(=O)N1 [B-103]	0.234	58.5		
COc1cc(-c2cccc(-c3cccc4c3CC[C@@H]4Oc3nc(OC)c(CNC4(C(=O)O)CC4)cc3C(F)(F)F)c2Cl)cc(F)c1CNC[C@@H]1CCC(=O)N1 [B-193]	0.064	3.76		
COc1cc(-c2cccc(-c3cccc4c3CC[C@@H]4Oc3nc(OC)c(CN4CC[C@@H](C(=O)O)C4)cc3Cl)c2Cl)ccc1CNC[C@@H]1CCC(=O)N1 [B-41]	0.064	3.59		
COc1nc(-c2cccc(-c3cccc4c3CC[C@@H]4Oc3nc(OC)c(CNCCC(=O)O)cc3C(F)(F)F)c2Cl)ccc1CN[C@H]1C[C@](C)(O)C1 [B-254]	0.064	11.4		
COc1nc(-c2cccc(-c3cccc4c3CC[C@@H]4Nc3nc(OC)c(CNCC(=O)O)cc3C(F)(F)F)c2Cl)ccc1CN[C@H]1C[C@](C)(O)C1 [A-67]			≤ 0.064	32.9
CCN(CC(=O)O)Cc1cc(C(F)(F)F)c(O[C@H]2CCc3c(-c4cccc(-c5cc(F)c(CNC[C@@H]6CCC(=O)N6)c(OC)c5)c4Cl)cccc32)nc1OC [B-179]	0.064	3.64		
COc1nc(-c2cccc(-c3cccc4c3CC[C@@H]4Oc3nc(OC)c(CN4C[C@@H]5CC[C@]5(C(=O)O)C4)cc3Cl)c2Cl)ccc1CNC[C@@H]1CCC(=O)N1 [B-93]	0.064	55		
COc1nc(-c2cccc(-c3cccc4c3CC[C@@H]4Oc3nc(OC)c(CN4CC[C@@H](C(=O)O)C4)cc3Cl)c2C)ccc1CNC[C@@H]1CCC(=O)N1 [B-78]	0.064	57.9		
COc1nc(-c2cccc(-c3cccc4c3CC[C@@H]4Nc3nc(OC)c(CNC4(C(=O)O)CC4)nc3C(F)(F)F)c2Cl)ccc1CNC[C@H]1C[C@](C)(O)C1 [A-85]			≤ 0.064	42.5
COc1nc(-c2cccc(-c3cccc4c3CC[C@@H]4Oc3nc(OC)c(CNC4(C(=O)O)CC4)cc3C(F)(F)F)c2Cl)ccc1CN1CC2(C1)CN(C(C)=O)C2 [B-168]	0.064	11.8		
COc1nc(-c2cccc(-c3cccc4c3CC[C@@H]4Oc3nc(OC)c(CN4CC[C@@H](C(=O)N=S(C)(=O)NC(C)=O)C4)cc3Cl)c2Cl)ccc1CNC[C@@H]1CCC(=O)N1 (some centres unmarked) [B-163]	0.064	39.1		
COc1nc(-c2cccc(-c3cccc4c3CC[C@@H]4Oc3nc(OC)c(CN4CCC[C@]4(C)C(=O)O)cc3C(F)(F)F)c2Cl)ccc1CNC[C@@H]1CCC(=O)N1 [B-8]	0.064	13.2		
COc1cc(-c2cccc(-c3cccc4c3CC[C@@H]4Oc3nc(OC)c(CNC(C)(C)CC(=O)O)cc3C(F)(F)F)c2Cl)cc(F)c1CNC[C@@H]1CCC(=O)N1 [B-192]	0.064	6.8		
COc1nc(-c2cccc(-c3cccc4c3CC[C@@H]4Nc3nc(OC)c(CN4CC5(CCC(=O)N5)C4)cc3Cl)c2Cl)ccc1CNC[C@@H]1CCC(=O)N1 [A-7]			1.18	180
COc1nc(-c2cccc(-c3cccc4c3CC[C@@H]4Nc3nc(OC)c(CN[C@H](C(=O)O)C4CC4)nc3C(F)(F)F)c2Cl)ccc1CN[C@H]1C[C@](C)(O)C1 [A-94]			≤ 0.064	20.7
COc1nc(-c2cccc(-c3cccc4c3CC[C@@H]4Oc3nc(OC)c(CN4CC(C(=O)O)C5(CC5)C4)cc3Cl)c2Cl)ccc1CNC[C@@H]1CCC(=O)N1 (some centres unmarked) [B-72]	0.064	25.8		

SMILES	IC50 (PD-1/PD-L1; [1]) [nM]	AC50 (PD-L1; [2]) [nM]	IC50 (PD-1/PD-L1; [3]) [nM]	AC50 (PD-L1; [4]) [nM]
COc1nc(-c2cccc(-c3cccc4c3CC[C@@H]4Oc3nc(OC)c(CN4CC5CCC4C5C(=O)O)cc3Cl)c2Cl)ccc1CNC[C@@H]1CCC(=O)N1 (some centres unmarked) [B-174]	0.064	7.97		
COc1nc(-c2cccc(-c3cccc4c3CC[C@@H]4Nc3nc(OC)c(CNC(C)(C)C(=O)O)nc3C(F)(F)F)c2Cl)ccc1CN[C@H]1C[C@](C)(O)C1 [A-95]			≤ 0.064	21.2
COc1cc(O[C@H]2CCc3c(-c4cccc(-c5ccc(CNC[C@@H]6CCC(=O)N6)c(OC)n5)c4Cl)cccc32)c(Cl)cc1CN1CC2(C(=O)O)CCC1CC2 [B-166]	0.064	43.7		
COc1nc(-c2cccc(-c3cccc4c3CC[C@@H]4Nc3nc(OC)c(CN4CC(C(=O)O)C4)cc3C(F)(F)F)c2Cl)ccc1CN1CC(C)(O)C1 [A-54]			≤ 0.064	76.6
COc1nc(-c2cccc(-c3cccc4c3CC[C@@H]4Nc3nc(OC)c(CNCC(=O)O)nc3C(F)(F)F)c2Cl)ccc1CN1CC(O)C1 [A-73]			≤ 0.064	15.7
COc1nc(-c2cccc(-c3cccc4c3CC[C@@H]4Oc3nc(OC)c(CN4C5CCC4(C(=O)O)CC5)cc3C(F)(F)F)c2Cl)ccc1CNC[C@@H]1CCC(=O)N1 [B-232]	0.064	1.79		
COc1nc(-c2cccc(-c3cccc4c3CC[C@@H]4Oc3nc(OC)c(CN4CC[C@@](C)(C(=O)O)C4)cc3C(F)(F)F)c2Cl)ccc1CNC[C@@H]1CC(O)C(=O)N1 (some centres unmarked) [B-202]	0.064	3.43		
COC[C@H](NCc1cc(C(F)(F)F)c(O[C@H]2CCc3c(-c4cccc(-c5ccc(CNC[C@@H]6CCC(=O)N6)c(OC)n5)c4Cl)cccc32)nc1OC)C(=O)O [B-264]	0.064	6.55		
COc1nc(N[C@H]2CCc3c(-c4cccc(-c5ccc(CNC[C@@H]6CCC(=O)N6)c(OCC#N)n5)c4Cl)cccc32)c(C(F)(F)F)cc1CN1CCC[C@]1(C)C(=O)O [A-28]			≤ 0.064	18.1
COc1nc(-c2cccc(-c3cccc4c3CC[C@@H]4Oc3nc(OC)c(CN4C[C@@H](C)[C@H]4C(=O)O)cc3Cl)c2Cl)ccc1CNC[C@@H]1CCC(=O)N1 [B-175]	0.064	14.3		
COc1nc(-c2cccc(-c3cccc4c3CC[C@@H]4Nc3nc(OC)c(CNCC(=O)O)nc3C(F)(F)F)c2Cl)ccc1CNC[C@@H]1CCC(=O)N1 [A-107]			≤ 0.064	8.64
COc1nc(-c2cccc(-c3cccc4c3CC[C@@H]4Oc3nc(OC)c(CN4C[C@@H]5C[C@@H]5[C@H]4C(=O)O)cc3C(F)(F)F)c2Cl)ccc1CNC[C@@H]1CCC(=O)N1 [B-138]	0.064	11.6		
COc1nc(N[C@H]2CCc3c(-c4cccc(-c5ccc(CNC[C@@H]6CCC(=O)N6)c(OCC#N)n5)c4Cl)cccc32)c(C(F)(F)F)cc1CNC1(C(=O)O)CC1 [A-29]			≤ 0.064	5.57
CNC(=O)C1CCN(Cc2cc(Cl)c(O[C@H]3CCc4c(-c5cccc(-c6cnc(CNC[C@@H]7CCC(=O)N7)c(OC)n6)c5Cl)cccc43)nc2OC)C1 (some centres unmarked) [B-28]	0.088	26.9		
COc1nc(-c2cccc(-c3cccc4c3CC[C@@H]4Oc3nc(OC)c(CN4CC[C@@H](C(=O)O)C4)cc3Cl)c2C#N)ccc1CNC[C@@H]1CCC(=O)N1 [B-73]	0.064	81.7		
COc1cc(O[C@H]2CCc3c(-c4cccc(-c5ccc(CNC[C@@H]6CCC(=O)N6)c(OC)n5)c4Cl)cccc32)c(C(F)(F)F)cc1CN1CC2CCC1C(C(=O)O)C2 (some centres unmarked) [B-224]	0.064	10.6		
COc1cc(N[C@H]2CCc3c(-c4cccc(-c5ccc(CNC[C@@H]6CCC(=O)N6)c(OC)n5)c4Cl)cccc32)c(Cl)cc1CN1CC[C@H](C(=O)O)C1 [A-15]			≤ 0.064	51.6
COc1nc(-c2cccc(-c3cccc4c3CC[C@@H]4Oc3nc(OC)c(CN4CC5(C(=O)O)CCC4CC5)cc3C(F)(F)F)c2Cl)ccc1CNC[C@@H]1CC(O)C(=O)N1 (some centres unmarked) [B-203]	0.064	5.21		
COc1cc(-c2cccc(-c3cccc4c3CC[C@@H]4Oc3nc(OC)c(CN4CC5(C(=O)O)CCC4CC5)cc3Cl)c2Cl)ccc1CNC[C@@H]1CCC(=O)N1 [B-39]	0.064	3.8		
CNC(=O)CCNCc1cc(Cl)c(O[C@H]2CCc3c(-c4cccc(-c5ccc(CNC[C@@H]6CCC(=O)N6)c(OC)n5)c4Cl)cccc32)nc1OC [B-90]	0.111	18.7		
